Measurements published in patent publication US10583143B2, “Methods and compositions for the treatment or prevention of abnormal bone formation in a soft tissue” (THE BRIGHAM AND WOMEN'S HOSPITAL, INC., priority 2015, dated 2020).
pIC50: −log10 of the molar value. Entries after “also recorded” stand apart in the source; their conditions may differ.

What was measured:
[1] = tested on: ACVR1^Q207D (CAG-Z-EGFP-caALK2) transgenic mice; assay: Inducible ACVR1^Q207D-Tg (CAG-Z-EGFP-caALK2) mouse model of heterotopic ossification / FOP; conditions: for heterotopic bone lesions on x-ray: 6 mg/kg i.p. twice daily; for passive range-of-motion: 6 mg/kg intraperitoneally twice daily
[2] = 60 mg to 250 mg p.o. per day; cited from earlier work
[3] = tested on: ACVR1^[R206H]FlEx/+] knock-in mice; assay: ACVR1^[R206H]FlEx/+] knock-in mouse model of FOP
Description: Mice were maintained in accordance with Institutional Animal Care and Use Committee guidelines under approved experimental protocols. […] Heterotopic bone formation in these mice was introduced via single retro-popliteal injection of adenoviral Cre-recombinase at 1×10^8 PFU at postnatal day 7 (P7). […] Bone formation as a function of a loss of passive range of motion, via dorsiflexion of the left ankle joint was assessed daily. […] On day 35 for inducible ACVR1^Q207D mice, and on day 90-120 for inducible ACVR1^R206H mice were sacrificed and imaged via X-ray radiography (MS FX In-Vivo Pro: Carestream Health). Micro-computed tomography (micro-CT) imaging was carried out on samples fixed overnight in 1% paraformaldehyde followed by scanning (μCT35, ScanCo).

[4] = tested on: constitutively activated ALK1-5; assay: Cell-based luciferase reporter assays with constitutively activated ALK1-5, potency comparison; conditions: ALK1-5, BRE-Luc / CAGA-Luc
Description: […]. Inhibition curves of BMP and TGF-β transcriptional activity mediated by constitutively activated ALK1-5 in a cell-based luciferase reporter assays. […]. Data shown are representative of more than 3 independent experiments, with data plotted as mean±S.E.M. (n=3 replicates)
C2C12 myofibroblast cells stably expressing firefly luciferase under the control of BMP-responsive promoter element (BRE-Luc) were generously provided by Dr. Peter ten Dijke (Leiden University Medical Center, NL). Human embryonic kidney 293T cells stably transfected with the TGF-β-responsive element fused to luciferase gene (CAGA-Luc) were a kind gift of Dr. Howard Weiner (Brigham and Women's Hospital, Boston, Mass.). C2C12 Bre-Luc and 293T CAGA-Luc cells were seeded at 20,000 cells in DMEM supplemented with 2% FBS per well in tissue culture treated 96-well plates (Costar® 3610; Corning). The cells were incubated for 1 h (37° C. and 10% CO2) and allowed to settle and attach. […]. Cells were then incubated for 30 min. […] Media was discarded and firefly luciferase activity was measured (Promega™) according to manufacturer's protocol. Light output was measured using a Spectramax™ L luminometer (Molecular Devices™) with an integration time of one second per well. […]

[5] = molecular target: T1, ALK5/TGFBR1 (Homo sapiens, UniProt P36897, T204D); assay: CAGA-Luc luciferase reporter in HEK293 cells driven by constitutively active ALK5; format: cell-based; conditions: Ad.caALK5, read-out: IC50 inhibition of caALK5 activity (CAGA-Luc)
T1 construct: expressed in transfected cells; host or cells: 293T CAGA-Luc cells infected with Ad.caALK5 (gift of Dr. Akiko Hata)
T1 sequence (P36897 34-503 T204D): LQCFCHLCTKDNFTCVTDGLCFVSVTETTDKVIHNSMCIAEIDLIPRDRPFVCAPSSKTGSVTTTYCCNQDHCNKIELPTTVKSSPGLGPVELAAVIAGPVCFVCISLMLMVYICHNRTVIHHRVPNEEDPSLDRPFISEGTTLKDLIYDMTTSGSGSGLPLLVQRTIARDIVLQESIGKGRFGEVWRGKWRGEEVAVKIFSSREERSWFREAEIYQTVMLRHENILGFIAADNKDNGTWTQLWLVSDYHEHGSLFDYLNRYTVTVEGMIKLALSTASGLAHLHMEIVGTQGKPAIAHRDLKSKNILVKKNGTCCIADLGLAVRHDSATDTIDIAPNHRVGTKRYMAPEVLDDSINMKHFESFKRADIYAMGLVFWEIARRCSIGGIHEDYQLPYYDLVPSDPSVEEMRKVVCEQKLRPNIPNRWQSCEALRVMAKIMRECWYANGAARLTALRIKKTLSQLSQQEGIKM
Description: (§1) Inhibition of BMP-mediated gene transcription was measured via the activity of a BMP-response element luciferase reporter (BRE-Luc) stably expressed in the C2C12 cell line as a measure of BMP signaling inhibition, with gene expression being driven by constitutively active (ca-) forms of BMP type I receptors ALK1, ALK2, and ALK3 (FIG. 1). This was measured in comparison to the inhibition of TGF-β or Activin signaling via CAGA-Luc reporter construct stably expressed in HEK293 cells, with gene expression being driven by constitutively active (ca-) forms of Activin/TGF=β type I receptors ALK4 or ALK5 (FIG. 1). […]. C2C12 myofibroblast cells stably expressing firefly luciferase under the control of BMP-responsive promoter element (BRE-Luc) were generously provided by Dr. Peter ten Dijke (Leiden University Medical Center, NL). Human embryonic kidney 293T cells stably transfected with the TGF-β-responsive element fused to luciferase gene (CAGA-Luc) were a kind gift of Dr. Howard Weiner (Brigham and Women's Hospital, Boston, Mass.). […] Media was discarded and firefly luciferase activity was measured (Promega™) according to manufacturer's protocol. Light output was measured using a Spectramax™ L luminometer (Molecular Devices™) with an integration time of one second per well. […]

[6] = molecular target: T2, ALK4/ACVR1B (Homo sapiens, UniProt P36896); assay: CAGA-Luc luciferase reporter in HEK293 cells driven by constitutively active ALK4; format: cell-based; conditions: Ad.caALK4, read-out: IC50 inhibition of caALK4 activity (CAGA-Luc)
T2 sequence (P36896 1-505 T206D): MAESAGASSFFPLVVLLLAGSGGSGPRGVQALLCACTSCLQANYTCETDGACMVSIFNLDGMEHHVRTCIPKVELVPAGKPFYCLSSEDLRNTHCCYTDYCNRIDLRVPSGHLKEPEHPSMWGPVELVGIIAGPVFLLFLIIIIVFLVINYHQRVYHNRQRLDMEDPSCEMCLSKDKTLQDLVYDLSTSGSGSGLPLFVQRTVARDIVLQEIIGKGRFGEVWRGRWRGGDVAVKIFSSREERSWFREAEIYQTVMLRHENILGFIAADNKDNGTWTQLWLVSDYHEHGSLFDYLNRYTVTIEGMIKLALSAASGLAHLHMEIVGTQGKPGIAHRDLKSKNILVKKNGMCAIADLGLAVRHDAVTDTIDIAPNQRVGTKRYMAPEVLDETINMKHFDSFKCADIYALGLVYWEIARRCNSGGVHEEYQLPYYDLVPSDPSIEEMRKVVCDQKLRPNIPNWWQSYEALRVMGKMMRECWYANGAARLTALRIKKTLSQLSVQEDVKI
Description: as §1

[7] = 25 mg/kg oral gavage daily for first 28 days only, observed up to 90 days
[8] = 25 mg/kg intraperitoneally twice daily for 28 days

**Q.** Which “heterotopic bone lesions on x-ray” value [1] does the source give for c1ccc2c(-c3cnn4cc(-c5ccc(N6CCNCC6)cc5)cnc34)ccnc2c1 [LDN-193189] here?
**A.** preventing heterotopic bone lesions

**Q.** What about the passive range-of-motion [1] of the same compound?
**A.** effective in preserving range of motion; also recorded: mobility was almost entirely preserved

**Q.** For CN1CCN(CCOc2cc(OC3CCOCC3)c3c(Nc4c(Cl)ccc5c4OCO5)ncnc3c2)CC1 [AZD-0530, N-(5-chloro-1,3-benzodioxol-4-yl)-7-[2-(4-methylpiperazin-1-yl)ethoxy]-5-[(tetrahydro-2H-pyran-4-yl)oxy]quinazolin-4-amine], which “tolerability in healthy human adults” value [2] is on record?
**A.** good tolerability

**Q.** And the “change in weight compared to vehicle treated controls” value ([3]; 25 mg/kg oral gavage daily for 28 days)?
**A.** No statistically significant change

**Q.** What about the “progressive loss of range of motion” value [3, 7] of the same compound?
**A.** protected

**Q.** And the radiographic bone formation [3, 7]?
**A.** protected

**Q.** What about the “decreased potency against all receptors compared with LDN-193189” value [4] of the same compound?
**A.** approximately 10 fold

**Q.** And the pIC50 [5]?
**A.** 6.66

**Q.** What about the pIC50 [6] of the same compound?
**A.** 6.66

**Q.** For c1cc(-c2cnn3cc(-c4ccc(N5CCNCC5)cc4)cnc23)c2cccnc2c1 [LDN-212854], which “heterotopic bone lesions on x-ray” value [1] is on record?
**A.** preventing heterotopic bone lesions

**Q.** What about the passive range-of-motion [1] of the same compound?
**A.** effective in preserving range of motion; also recorded: mobility was almost entirely preserved

**Q.** With COc1cc2c(Nc3ccc(Br)cc3F)ncnc2cc1OCC1CCN(C)CC1 [ZD-6474] as the compound, how does the radiographic heterotopic ossification [1, 8] read?
**A.** did not significantly attenuate; also recorded: no evidence of improvement

**Q.** And the range-of motion [1, 8]?
**A.** no evidence of improvement
